The nature of data set [1]: Maximum absorption wavelength of compound solution (UV-1800). The settings on record: dissolved in tetrahydrofuran, 1 g/L. The class given is physicochemical. Set-up: unit: nm. As for the experimental part: According to the invention, the value of the maximum absorption wavelength is obtained as follows: a compound represented by Formula (1) is dissolved in tetrahydrofuran to prepare a solution with a concentration of 1 g/L, and an absorption spectrum of the solution obtained by dissolving the compound is measured in a wavelength range of 350 nm to 1,200 nm using UV-1800 manufactured by Shimadzu Corporation.
Each compound was dissolved in tetrahydrofuran to prepare a solution with a concentration of 1 g/L. Next, the absorption spectrum of the solution obtained by dissolving each compound was measured using UV-1800 manufactured by Shimadzu Corporation, and a maximum absorption wavelength (λmax) was measured.

Data set [2] can be described thus: Solubility of compound to solvent at 25° C. The class given is physicochemical. The settings on record: for Solubility Cyclohexanone / Solubility PGMEA / Solubility Toluene: 25° C.; for Solubility Cyclohexanone / solubility of the compound to each solvent (in words): cyclohexanone; for solubility of the compound to each solvent (in words): PGMEA; for solubility of the compound to each solvent (in words) / Solubility Toluene: toluene; for Solubility PGMEA: propylene glycol monomethyl ether acetate. As for the experimental part:
The solubility of each compound to each solvent (cyclohexanone, propylene glycol monomethyl ether acetate (PGMEA), and toluene) at 25° C. was evaluated based on the following standards.
A: The solubility of the compound to the solvent at 25° C. is 2 mass % or greater.

Structures are written as SMILES.

In the case of `CC(C)(C)c1ccc(B2N=c3/c(=C4\C(=O)C(c5ccc6cccc7c6c5NB(c5ccc(C(C)(C)C)cc5)N7)=C4O)ccc4cccc(c34)N2)cc1` [Compound R-1, reference compound], the “Maximum Absorption Wavelength” value in data set [1] is on record as 827. In data set [2], the “Solubility Cyclohexanone” value is “D (The solubility of the compound to the solvent at 25 °C is less than 0.5 mass %.)”, the “solubility of the compound to each solvent (in words)” value is “did not have sufficient solubility”, the “Solubility PGMEA” value was “D (The solubility of the compound to the solvent at 25 °C is less than 0.5 mass %.)” and the “Solubility Toluene” value was “D (The solubility of the compound to the solvent at 25 °C is less than 0.5 mass %.)”.

On to `CC(C)CCCC(C)CCc1ccc(B2N=c3/c(=C4\C(=O)C(c5ccc6cccc7c6c5NB(c5ccc(CCC(C)CCCC(C)C)cc5)N7)=C4O)ccc4cccc(c34)N2)cc1` (racemic) [SQ-2], for which, in data set [1], the “Maximum Absorption Wavelength” value was 823. Further, in data set [2], the “Solubility Cyclohexanone” value was “A (The solubility of the compound to the solvent at 25 °C is 2 mass % or greater.)”, the “Solubility PGMEA” value was “A (The solubility of the compound to the solvent at 25 °C is 2 mass % or greater.)” and the “Solubility Toluene” value is “A (The solubility of the compound to the solvent at 25 °C is 2 mass % or greater.)”.

Take `C=CCCCCCCCCOc1ccccc1B1N=c2/c(=C3\C(=O)C(c4ccc5cccc6c5c4NB(c4ccccc4OCCCCCCCCC=C)N6)=C3O)ccc3cccc(c23)N1` [SQ-11]: the “Maximum Absorption Wavelength” value in data set [1] amounted to 828. In addition, in data set [2], the “Solubility Cyclohexanone” value is “A (The solubility of the compound to the solvent at 25 °C is 2 mass % or greater.)”, the “Solubility PGMEA” value is “B (The solubility of the compound to the solvent at 25 °C is 1 mass % to less than 2 mass %.)” and the “Solubility Toluene” value is “A (The solubility of the compound to the solvent at 25 °C is 2 mass % or greater.)”.

Take `COCCOCCOCCOc1ccc(B2N=c3/c(=C4\C(=O)C(c5ccc6cccc7c6c5NB(c5ccc(OCCOCCOCCOC)cc5)N7)=C4O)ccc4cccc(c34)N2)cc1` [SQ-5]: in data set [1], the “Maximum Absorption Wavelength” value is 823. Besides, in data set [2], the “Solubility Cyclohexanone” value was “B (The solubility of the compound to the solvent at 25 °C is 1 mass % to less than 2 mass %.)”, the “Solubility PGMEA” value was “A (The solubility of the compound to the solvent at 25 °C is 2 mass % or greater.)” and the “Solubility Toluene” value is “B (The solubility of the compound to the solvent at 25 °C is 1 mass % to less than 2 mass %.)”.

Regarding `CCCCCCCCCC(CCCCCCCCC)Oc1ccc(B2N=c3/c(=C4\C(=O)C(c5ccc6cccc7c6c5NB(c5ccc(OC(CCCCCCCCC)CCCCCCCCC)cc5)N7)=C4O)ccc4cccc(c34)N2)cc1` [SQ-4], the “Maximum Absorption Wavelength” value in data set [1] was 823. Moreover, in data set [2], the “Solubility Cyclohexanone” value is “B (The solubility of the compound to the solvent at 25 °C is 1 mass % to less than 2 mass %.)”, the “Solubility PGMEA” value is “B (The solubility of the compound to the solvent at 25 °C is 1 mass % to less than 2 mass %.)” and the “Solubility Toluene” value is “A (The solubility of the compound to the solvent at 25 °C is 2 mass % or greater.)”.

On to `CCC1(CC)N=c2/c(=C3\C(=O)C(c4ccc5cccc6c5c4NC(CC)(CC)N6)=C3O)ccc3cccc(c23)N1` [Compound R-2, reference compound], for which the “Maximum Absorption Wavelength” value in data set [1] is listed as 807. Also, in data set [2], the “Solubility Cyclohexanone” value is “C (The solubility of the compound to the solvent at 25 °C is 0.5 mass % to less than 1 mass %.)”, the “solubility of the compound to each solvent (in words)” value was “did not have sufficient solubility”, the “Solubility PGMEA” value was “C (The solubility of the compound to the solvent at 25 °C is 0.5 mass % to less than 1 mass %.)” and the “Solubility Toluene” value was “B (The solubility of the compound to the solvent at 25 °C is 1 mass % to less than 2 mass %.)”.

Take `CCCCCCCCCCOc1ccccc1B1N=c2/c(=C3\C(=O)C(c4ccc5cccc6c5c4NB(c4ccccc4OCCCCCCCCCC)N6)=C3O)ccc3cccc(c23)N1` [SQ-6]: in data set [1], the “Maximum Absorption Wavelength” value is listed as 828. In data set [2], the “Solubility Cyclohexanone” value is “B (The solubility of the compound to the solvent at 25 °C is 1 mass % to less than 2 mass %.)”, the “Solubility PGMEA” value is “B (The solubility of the compound to the solvent at 25 °C is 1 mass % to less than 2 mass %.)” and the “Solubility Toluene” value is “A (The solubility of the compound to the solvent at 25 °C is 2 mass % or greater.)”.

Take `CCCCCCCCCC(CCCCCCCCC)B1N=c2/c(=C3\C(=O)C(c4ccc5cccc6c5c4NB(C(CCCCCCCCC)CCCCCCCCC)N6)=C3O)ccc3cccc(c23)N1` [SQ-7]: the “Maximum Absorption Wavelength” value in data set [1] is 815. Besides, in data set [2], the “Solubility Cyclohexanone” value was “B (The solubility of the compound to the solvent at 25 °C is 1 mass % to less than 2 mass %.)”, the “Solubility PGMEA” value is “B (The solubility of the compound to the solvent at 25 °C is 1 mass % to less than 2 mass %.)” and the “Solubility Toluene” value is “B (The solubility of the compound to the solvent at 25 °C is 1 mass % to less than 2 mass %.)”.

Source of the values: US9879034B2, “Near-infrared absorption composition, cured film, near-infrared cut filter, solid-state imaging device, infrared sensor, and compound” (FUJIFILM Corporation, priority 2015, dated 2018).
